# How the values were obtained:
# [1] = Caco-2 permeability assay; format: in vitro ADME; settings: human
# Method: Exemplary compounds were tested for cell permeability in Caco-2, MDCKII-MDR1 and MDCKII-BCRP cell lines with efflux transporter engagement inferred from the efflux ratios determined. Procedures and results are described below. […] This feature of certain compounds is in part due to efflux transporter engagement. See, for instance, exemplary such compounds included in data tables below.
# The transport buffer in the study was HBSS with 10.0 mM HEPES at pH 7.40±0.05. Test compound was tested at 2.00 μM bi-directionally in duplicate. Digoxin was tested at 10.0 μM bi-directionally in duplicate, while nadolol and metoprolol were tested at 2.00 μM in A to B direction in duplicate. Final DMSO concentration was adjusted to less than 1%. The plate was incubated for 2 hours in CO2 incubator at 37±1° C., with 5% CO2 at saturated humidity without shaking. And all samples after mixed with acetonitrile containing internal standard were centrifuged at 3200×g for 10 min. For nadolol and metoprolol, 200 μL supernatant solution was diluted with 600 μL ultra-pure water for LC-MS/MS analysis. For digoxin and test compounds, 200 μL supernatant solution was diluted with 200 μL ultra-pure water for LC-MS/MS analysis. Concentrations of test and control compounds in starting solution, donor solution, and receiver solution were quantified by LC-MS/MS methodologies, using peak area ratio of analyte/internal standard.
# After transport assay, lucifer yellow rejection assay was applied to determine the Caco-2 cell monolayer integrity.
# […] And permeation of lucifer yellow through the monolayer was measured to evaluate the cellular integrity.
# The apparent permeability coefficient Papp (cm/s) was calculated using the equation: Papp=(dCr/dt)×Vr/(A×C0), where dCr/dt is the cumulative concentration of compound in the receiver chamber as a function of time (μM/s); Vr is the solution volume in the receiver chamber (0.075 mL on the apical side, 0.25 mL on the basolateral side); A is the surface area for the transport, i.e. 0.0804 cm^2 for the area of the monolayer; C0 is the initial concentration in the donor chamber (μM).
# The efflux ratio was calculated using the equation: Efflux Ratio=Papp (BA)/Papp(AB).
# Percent recovery was calculated using the equation: % Solution Recovery=100×[(Vr×Cr)+(Vd×Cd)]/(Vd×C0), where Vd is the volume in the donor chambers (0.075 mL on the apical side, 0.25 mL on the basolateral side); Cd and Cr are the final concentrations of transport compound in donor and receiver chambers, respectively.
# [2] = biological target: T1, MDR1 (Homo sapiens, UniProt P08183); assay: Permeability in MDR1-MDCKII cells; format: in vitro ADME; settings: dog, MDCK-MDR1, pH 7.4
# T1 construct: host or cells: MDCKII (canine kidney) cells
# How it was run: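 MDR1-MDCKII monolayers grown 4-7 days; compounds 2.00 μM in HBSS/10 mM Hepes pH 7.4, A-to-B and B-to-A in duplicate, 2.5 h at 37 °C. LC-MS/MS quantitation gives Papp and efflux ratio; monolayer integrity checked by lucifer yellow rejection.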
# T1 sequence (P08183 whole entry): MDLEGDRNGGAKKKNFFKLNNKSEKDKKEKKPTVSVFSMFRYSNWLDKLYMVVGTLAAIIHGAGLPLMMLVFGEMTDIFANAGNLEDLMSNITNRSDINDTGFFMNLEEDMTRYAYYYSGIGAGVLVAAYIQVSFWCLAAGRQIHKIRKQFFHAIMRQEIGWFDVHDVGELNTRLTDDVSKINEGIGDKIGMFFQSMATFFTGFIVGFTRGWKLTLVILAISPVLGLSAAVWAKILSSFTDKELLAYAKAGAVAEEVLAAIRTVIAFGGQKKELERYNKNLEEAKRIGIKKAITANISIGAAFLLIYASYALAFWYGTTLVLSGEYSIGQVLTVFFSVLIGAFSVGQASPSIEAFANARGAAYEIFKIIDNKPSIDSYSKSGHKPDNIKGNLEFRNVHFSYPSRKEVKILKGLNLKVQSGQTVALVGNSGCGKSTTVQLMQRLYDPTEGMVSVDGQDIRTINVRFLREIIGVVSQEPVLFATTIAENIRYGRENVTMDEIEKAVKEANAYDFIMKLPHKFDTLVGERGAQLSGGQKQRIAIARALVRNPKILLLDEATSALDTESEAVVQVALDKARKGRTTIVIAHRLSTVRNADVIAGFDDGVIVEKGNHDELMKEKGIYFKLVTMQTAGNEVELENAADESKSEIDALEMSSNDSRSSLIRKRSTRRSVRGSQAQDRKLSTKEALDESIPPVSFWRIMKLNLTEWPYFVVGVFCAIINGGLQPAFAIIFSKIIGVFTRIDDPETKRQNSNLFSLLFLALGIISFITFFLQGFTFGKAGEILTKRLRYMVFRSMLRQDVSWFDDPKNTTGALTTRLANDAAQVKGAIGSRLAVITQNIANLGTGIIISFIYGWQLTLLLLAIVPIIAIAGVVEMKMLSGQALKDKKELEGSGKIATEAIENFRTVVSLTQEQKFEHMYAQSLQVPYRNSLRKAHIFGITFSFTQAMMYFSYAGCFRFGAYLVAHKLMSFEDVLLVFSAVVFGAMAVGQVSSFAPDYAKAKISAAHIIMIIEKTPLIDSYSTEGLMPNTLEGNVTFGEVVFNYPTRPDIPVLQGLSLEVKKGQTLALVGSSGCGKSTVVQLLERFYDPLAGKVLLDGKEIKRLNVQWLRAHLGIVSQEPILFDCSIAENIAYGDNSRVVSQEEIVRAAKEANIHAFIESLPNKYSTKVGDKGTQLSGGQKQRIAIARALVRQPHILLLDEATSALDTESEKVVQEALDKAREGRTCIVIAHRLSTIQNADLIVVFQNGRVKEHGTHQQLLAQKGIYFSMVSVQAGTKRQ
smiles,measurement,setting,value
"Cc1ccc(-c2noc([C@H]3C[C@@H]3F)n2)cc1NC(=O)c1cnc2cc(COCC(C)(C)O)ccn12 [Compound I-71, N-[5-[5-[(1R,2S)-2-fluorocyclopropyl]-1,2,4-oxadiazol-3-yl]-2-methyl-phenyl]-7-[(2-hydroxy-2-methyl-propoxy)methyl]imidazo[1,2-a]pyridine-3-carboxamide]","efflux ratio at 2 h, 2 μM","[1]; Caco-2, pH 7.4",6.78
same,"Papp A→B at 2 h, 2 μM","[1]; pH 7.4, Caco-2, apical to basolateral",6.65 ×10⁻⁶ cm/s
same,"efflux ratio at 2.5 h, 2 μM",[2]; MDCKII-MDR1,5.15
same,"Papp A→B at 2.5 h, 2 μM","[2]; MDCKII-MDR1, apical to basolateral",5.94 ×10⁻⁶ cm/s
